# Reference: patent US12129246B1, “Hydroquinazoline derivatives for the treatment of a disease or disorder” (Novartis AG, priority 2023, dated 2024)
# Like-named read-outs stand apart in the source and are kept apart here.
# What was measured:
# monkey NPR1 = monkey NPR1 (Macaca fascicularis, UniProt A0A7N9DBT9); experiment: Cellular cGMP production assay, monkey NPR1 expressing CHO-K1 cells (CisBio HTRF); assay type: cell-based; settings: for Monkey NPR1 Amax (% of ANP): maximum cGMP production as percentage of the maximum cGMP produced with ANP
# Procedure, shortened: (§1)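 Step 1: add buffer (PBS, 0.1% BSA, 1 mM IBMX) and compounds, 3-fold series from 30 μM top. Step 2: incubate 30 min, 37 °C. Step 3: lyse; HTRF reagents 1 h at RT.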
# human NPR1 = target: T1, human NPR1 (Homo sapiens, UniProt P16066); experiment: Cellular cGMP production assay, human NPR1 expressing CHO-K1 cells (CisBio HTRF); assay type: cell-based; settings: for AC50: cGMP production, 30 min at 37° C., 12-point dose-response from 30 μM; for Human NPR1 Amax (% of ANP): maximum cGMP production as percentage of the maximum cGMP produced with ANP
# T1 construct: host or cells: CHO-K1
# T1 sequence (P16066 33-1061): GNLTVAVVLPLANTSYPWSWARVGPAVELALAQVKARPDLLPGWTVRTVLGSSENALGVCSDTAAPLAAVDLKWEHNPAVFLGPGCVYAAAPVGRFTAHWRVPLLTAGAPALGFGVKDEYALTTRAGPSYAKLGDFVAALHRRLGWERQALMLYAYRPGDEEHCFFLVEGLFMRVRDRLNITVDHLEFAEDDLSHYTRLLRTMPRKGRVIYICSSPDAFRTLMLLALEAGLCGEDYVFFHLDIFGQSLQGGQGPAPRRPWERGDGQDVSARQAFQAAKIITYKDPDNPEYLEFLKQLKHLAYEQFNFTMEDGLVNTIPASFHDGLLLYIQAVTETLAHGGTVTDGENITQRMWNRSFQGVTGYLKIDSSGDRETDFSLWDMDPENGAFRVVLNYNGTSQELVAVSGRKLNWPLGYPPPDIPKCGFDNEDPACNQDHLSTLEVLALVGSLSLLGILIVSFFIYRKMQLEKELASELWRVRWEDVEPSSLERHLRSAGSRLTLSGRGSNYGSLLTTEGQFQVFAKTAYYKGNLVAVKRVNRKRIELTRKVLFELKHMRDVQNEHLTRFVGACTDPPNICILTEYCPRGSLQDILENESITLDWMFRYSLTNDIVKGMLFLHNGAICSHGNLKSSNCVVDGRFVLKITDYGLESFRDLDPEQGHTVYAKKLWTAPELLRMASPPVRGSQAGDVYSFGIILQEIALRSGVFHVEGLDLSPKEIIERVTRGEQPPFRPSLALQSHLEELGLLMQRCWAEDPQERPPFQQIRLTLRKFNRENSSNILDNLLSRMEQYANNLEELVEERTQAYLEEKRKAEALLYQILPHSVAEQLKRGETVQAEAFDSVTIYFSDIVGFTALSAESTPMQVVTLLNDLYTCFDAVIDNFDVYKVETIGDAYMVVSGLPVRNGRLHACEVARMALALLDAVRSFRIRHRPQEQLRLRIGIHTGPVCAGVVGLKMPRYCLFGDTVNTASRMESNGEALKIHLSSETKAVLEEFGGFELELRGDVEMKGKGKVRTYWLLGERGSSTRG
# Procedure, shortened: as §1
# [1] = cGMP production, monkey NPR1 CHO-K1 cells, 30 min at 37° C., 12-point dose-response from 30 μM, read-out: Monkey NPR1 AC50
# Chain of monkey NPR1 (A0A7N9DBT9 entry or part of it): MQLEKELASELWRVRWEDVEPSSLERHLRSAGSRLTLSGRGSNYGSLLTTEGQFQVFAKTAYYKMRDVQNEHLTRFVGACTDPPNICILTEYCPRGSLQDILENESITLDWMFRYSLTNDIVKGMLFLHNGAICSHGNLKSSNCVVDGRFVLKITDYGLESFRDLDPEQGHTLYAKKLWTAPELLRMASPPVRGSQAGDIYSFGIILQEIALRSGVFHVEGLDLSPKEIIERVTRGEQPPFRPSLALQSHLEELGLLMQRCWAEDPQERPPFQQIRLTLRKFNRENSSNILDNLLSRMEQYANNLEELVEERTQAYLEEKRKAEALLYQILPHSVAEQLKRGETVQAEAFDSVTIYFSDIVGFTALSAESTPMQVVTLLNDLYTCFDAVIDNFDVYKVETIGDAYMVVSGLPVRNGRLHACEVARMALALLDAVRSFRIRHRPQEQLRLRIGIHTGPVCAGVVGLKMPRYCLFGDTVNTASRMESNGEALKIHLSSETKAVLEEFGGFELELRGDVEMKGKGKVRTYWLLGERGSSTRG
Compound,AC50 (monkey NPR1),Monkey NPR1 Amax (% of ANP) (monkey NPR1; monkey NPR1 CHO-K1 cells),AC50 (human NPR1),Human NPR1 Amax (% of ANP) (human NPR1),AC50 (monkey NPR1; [1])
"CC[C@H]([C@H]1CC[C@H](C(=O)O)CC1)N(C)c1nc2c(c(N[C@@H](CN3C4CCCC3CC4)c3cnn(C)c3C)n1)C[C@H](c1cccc(F)c1)CC2 [Compound 16, (1R,4r)-4-((1R)-1-(((6R)-4-(((1R)-2-(8-azabicyclo[3.2.1]octan-8-yl)-1-(1,5-dimethyl-1H-pyrazol-4-yl)ethyl)amino)-6-(3-fluorophenyl)-5,6,7,8-tetrahydroquinazolin-2-yl)(methyl)amino)propyl)cyclohexane-1-carboxylic acid]",47 nM,98.785 % of ANP,103 nM,100.021 % of ANP,
"CC[C@@H](Nc1nc2c(c(N[C@@H](CN3C4CC5CC(C4)CC3C5)c3cnn(C)c3)n1)C[C@H](c1ccccc1)CC2)[C@H]1CC[C@H](C(=O)O)CC1 [Compound 71, (1R,4r)-4-((R)-1-(((R)-4-(((R)-2-((5R,7R)-2-azaadamantan-2-yl)-1-(1-methyl-1H-pyrazol-4-yl)ethyl)amino)-6-phenyl-5,6,7,8-tetrahydroquinazolin-2-yl)amino)propyl)cyclohexane-1-carboxylic acid]",,121.791 % of ANP,237 nM,91.827 % of ANP,78 nM
"CC[C@@H](N(C)c1nc2c(c(N[C@@H](CN3C4CCCC3CC4)c3cnn(C)c3)n1)C[C@H](c1ccc(F)cc1)CC2)C12CC(C(=O)O)(C1)C2 [Compound 25, 3-((1R)-1-(((6R)-4-(((1R)-2-(8-azabicyclo[3.2.1]octan-8-yl)-1-(1-methyl-1H-pyrazol-4-yl)ethyl)amino)-6-(4-fluorophenyl)-5,6,7,8-tetrahydroquinazolin-2-yl)(methyl)amino)propyl)bicyclo[1.1.1]pentane-1-carboxylic acid]",108 nM,106.072 % of ANP,126 nM,102.816 % of ANP,
"CC[C@H]([C@H]1CC[C@H](C(=O)O)CC1)N(C)c1nc2c(c(N[C@@H](CN3CCCCC3)c3cnn(CC4CC4)c3)n1)C[C@H](c1ccccc1)CC2 [Compound 147, (1R,4r)-4-((R)-1-(((R)-4-(((R)-1-(1-(cyclopropylmethyl)-1H-pyrazol-4-yl)-2-(piperidin-1-yl)ethyl)amino)-6-phenyl-5,6,7,8-tetrahydroquinazolin-2-yl)(methyl)amino)propyl)cyclohexane-1-carboxylic acid]",,101.537 % of ANP,1080 nM,97.612 % of ANP,671 nM
"CC[C@H]([C@H]1CC[C@H](C(=O)O)CC1)N(C)c1nc2c(c(N[C@@H](CN3CCCC[C@H]3CO)c3cnn(CC)c3)n1)C[C@H](c1cccc(F)c1)CC2 [Compound 135, (1R,4r)-4-((R)-1-(((R)-4-(((R)-1-(1-ethyl-1H-pyrazol-4-yl)-2-((S)-2-(hydroxymethyl)piperidin-1-yl)ethyl)amino)-6-(3-fluorophenyl)-5,6,7,8-tetrahydroquinazolin-2-yl)(methyl)amino)propyl)cyclohexane-1-carboxylic acid]",,99.242 % of ANP,805 nM,94.757 % of ANP,604 nM
"CC[C@@H](N(C)c1nc2c(c(N[C@@H](CN3C4CCCC3CCC4)c3cnn(C)c3C)n1)C[C@H](c1cccc(F)c1)CC2)C12CC(C(=O)O)(C1)C2 [Compound 89, 3-((R)-1-(((R)-4-(((R)-2-((1S,5S)-9-azabicyclo[3.3.1]nonan-9-yl)-1-(1,5-dimethyl-1H-pyrazol-4-yl)ethyl)amino)-6-(3-fluorophenyl)-5,6,7,8-tetrahydroquinazolin-2-yl)(methyl)amino)propyl)bicyclo[1.1.1]pentane-1-carboxylic acid]",268 nM,103.084 % of ANP,309 nM,98.816 % of ANP,
"CC[C@@H](N(C)c1nc2c(c(N[C@@H](CN3CCC[C@H](C)C3)c3cnn(C)c3)n1)C[C@](C)(c1ccccc1)CC2)C12CC(C(=O)O)(C1)C2 [Compound 8, 3-((R)-1-(methyl((R)-6-methyl-4-(((R)-1-(1-methyl-1H-pyrazol-4-yl)-2-((S)-3-methylpiperidin-1-yl)ethyl)amino)-6-phenyl-5,6,7,8-tetrahydroquinazolin-2-yl)amino)propyl)bicyclo[1.1.1]pentane-1-carboxylic acid]",,101.778 % of ANP,87 nM,92.409 % of ANP,77 nM
"CC[C@H]([C@H]1CC[C@H](C(=O)O)CC1)N(C)c1nc2c(c(N[C@@H](CN3C4CCCC3CC4)c3cnn(C)c3)n1)CN(c1ccc(F)cc1)CC2 [Compound 80, (1R,4r)-4-((1R)-1-((4-(((1R)-2-(8-azabicyclo[3.2.1]octan-8-yl)-1-(1-methyl-1H-pyrazol-4-yl)ethyl)amino)-6-(4-fluorophenyl)-5,6,7,8-tetrahydropyrido[4,3-d]pyrimidin-2-yl)(methyl)amino)propyl)cyclohexane-1-carboxylic acid]",137 nM,102.546 % of ANP,267 nM,94.876 % of ANP,
"CC[C@H]([C@H]1CC[C@H](C(=O)O)CC1)N(C)c1nc2c(c(N[C@@H](CN3C4CCCC3CC4)c3ccn(C)n3)n1)C[C@H](c1cccc(F)c1)CC2 [Compound 105, (1R,4r)-4-((1R)-1-(((6R)-4-(((1S)-2-(8-azabicyclo[3.2.1]octan-8-yl)-1-(1-methyl-1H-pyrazol-3-yl)ethyl)amino)-6-(3-fluorophenyl)-5,6,7,8-tetrahydroquinazolin-2-yl)(methyl)amino)propyl)cyclohexane-1-carboxylic acid]",272 nM,97.086 % of ANP,396 nM,99.945 % of ANP,
"CCn1cc([C@H](CN2C3CCCC2CCC3)Nc2nc(N[C@H](C)c3ccc(C(=O)O)cc3)nc3c2C[C@H](c2cccc(F)c2)CC3)cn1 [Compound 153, 4-((R)-1-(((R)-4-(((R)-2-((1S,5S)-9-azabicyclo[3.3.1]nonan-9-yl)-1-(1-ethyl-1H-pyrazol-4-yl)ethyl)amino)-6-(3-fluorophenyl)-5,6,7,8-tetrahydroquinazolin-2-yl)amino)ethyl)benzoic acid]",753 nM,98.372 % of ANP,1200 nM,93.868 % of ANP,
"CC[C@H]([C@H]1CC[C@H](CC(=O)O)CC1)N(C)c1nc2c(c(N[C@@H](CN3CCC[C@H](C)C3)c3cnn(C)c3)n1)C[C@H](c1cccc(F)c1)CC2 [Compound 39, 2-((1R,4r)-4-((R)-1-(((R)-6-(3-fluorophenyl)-4-(((R)-1-(1-methyl-1H-pyrazol-4-yl)-2-((S)-3-methylpiperidin-1-yl)ethyl)amino)-5,6,7,8-tetrahydroquinazolin-2-yl)(methyl)amino)propyl)cyclohexyl)acetic acid]",,97.588 % of ANP,162 nM,100.189 % of ANP,102 nM
